Numbered stars: 1 amine (or outer) side, 2 acyl side, 3 side chain; on linkers, the order of the positions; unused ones are H or OH. Square brackets hold non-standard residues; d marks the D form. Peptide text beside a SMILES is read from it. * marks the point of attachment. ξ: configuration not given here. X1 = CC[C@H](C)[C@H](NC(=O)[C@H](CC(C)C)NC[C@H](CC(C)C)N*)C(=O)N[C@@H](Cc1c[nH]cn1)C(=O)O; LeuΨ(ξCHOHCH2)Val = CC(C)C[C@H](N[*:1])C(O)C[C@H](C(=O)[*:2])C(C)C; Sta(3ξ) = CC(C)C[C@H](N[*:1])C(O)CC(=O)[*:2]; Isovaleryl = CC(C)CC(=O)*; Boc = CC(C)(C)OC(=O)*
What was measured:
[1] = Compound was evaluated for the ability to inhibit penicillopepsin.
Pepsin A = Pepsin A (Sus scrofa, UniProt P00791); experiment: Inhibition of porcine pepsin
Renin = molecular target: T1, Renin (Homo sapiens, UniProt P00797); experiment: Compound was evaluated for the ability to inhibit human plasma renin.; format: cell-free
T1 sequence (P00797 whole entry): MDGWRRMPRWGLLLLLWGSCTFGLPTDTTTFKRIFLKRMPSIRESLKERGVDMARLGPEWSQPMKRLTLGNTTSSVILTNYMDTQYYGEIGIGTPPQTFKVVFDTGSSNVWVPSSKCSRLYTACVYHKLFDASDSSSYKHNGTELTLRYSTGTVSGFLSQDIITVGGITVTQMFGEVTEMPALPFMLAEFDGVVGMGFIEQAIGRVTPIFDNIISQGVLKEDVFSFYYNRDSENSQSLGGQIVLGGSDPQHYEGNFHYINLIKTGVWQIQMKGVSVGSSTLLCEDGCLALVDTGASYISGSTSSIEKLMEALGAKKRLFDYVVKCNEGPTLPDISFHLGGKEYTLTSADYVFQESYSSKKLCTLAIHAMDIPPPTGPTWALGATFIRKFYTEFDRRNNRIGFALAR

Chain of Pepsin A (P00791 whole entry): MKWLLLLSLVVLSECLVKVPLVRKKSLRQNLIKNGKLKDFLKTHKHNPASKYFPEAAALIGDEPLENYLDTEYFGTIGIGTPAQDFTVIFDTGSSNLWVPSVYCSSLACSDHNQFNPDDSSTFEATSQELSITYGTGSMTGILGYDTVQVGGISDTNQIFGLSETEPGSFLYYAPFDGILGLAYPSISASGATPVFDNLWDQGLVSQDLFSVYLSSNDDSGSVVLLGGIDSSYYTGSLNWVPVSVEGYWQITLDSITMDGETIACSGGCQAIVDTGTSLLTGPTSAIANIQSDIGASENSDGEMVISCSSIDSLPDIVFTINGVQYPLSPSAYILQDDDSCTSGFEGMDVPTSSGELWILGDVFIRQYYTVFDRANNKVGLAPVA

SMILES | Ki [1] [nM] | Ki (Pepsin A) [nM] | IC50 (Renin) [nM]
CC(C)CCC(=O)NC(=O)[C@H](C)NC(=O)CC(=O)[C@H](CC(C)C)NC(=O)[C@@H](NC(=O)[C@@H](NC(=O)CC(C)C)C(C)C)C(C)C | 85 | 10 | –
CC(C)CCC(=O)NC(=O)CNC(=O)CC(O)[C@@H](CC(C)C)NC(=O)[C@H](NC(=O)CC(C)C)C(C)C (some centres not stated) | – | 56 | –
CC[C@H](C)[C@H](NC(=O)[C@H](Cc1ccccc1)NC(=O)[C@H](Cc1ccccc1)NC(=O)[C@H](Cc1c[nH]cn1)NC(=O)[C@H](Cc1ccccc1)NC(=O)[C@@H]1CCCN1C(=O)[C@H](Cc1c[nH]cn1)NC(=O)[C@@H]1CCCN1)C(=O)N[C@@H](Cc1c[nH]cn1)C(=O)O | – | – | 7000
CCOC(=O)CC(O)[C@H](CC(C)C)NC(=O)[C@@H](NC(=O)[C@@H](NC(=O)CC(C)C)C(C)C)C(C)C (some centres not stated) | 47 | 10 | –
CC(C)CCC(=O)NC(=O)[C@@H](C)NC(=O)CC(O)[C@H](CC(C)C)NC(=O)[C@@H](NC(=O)CC(C)C)C(C)C (some centres not stated) | 7600 | 3 | –
CC(C)CCC(=O)NC(=O)[C@@H](C)NC(=O)CC(=O)[C@H](CC(C)C)NC(=O)[C@@H](NC(=O)CC(C)C)C(C)C | – | 56 | –
CC(C)CNC(=O)[C@@H](C)NC(=O)[C@@H](C)CC(=O)[C@H](CC(C)C)NC(=O)[C@@H](NC(=O)CC(C)C)C(C)C | – | 110 | –
CC(C)CCC(=O)NC(=O)[C@H](C)NC(=O)CCC(O)[C@@H](CC(C)C)NC(=O)[C@H](NC(=O)CC(C)C)C(C)C (some centres not stated) | – | 50 | –
CC[C@H](C)[C@H](NC(=O)[C@@H](CC(O)[C@H](CC(C)C)NC(=O)[C@H](Cc1cnc[nH]1)NC(=O)[C@H](Cc1ccccc1)NC(=O)[C@@H]1CCCN1C(=O)[C@H](Cc1cnc[nH]1)NC(=O)OC(C)(C)C)C(C)C)C(=O)N[C@@H](Cc1cnc[nH]1)C(=O)O (some centres not stated) (Boc-HPFH[LeuΨ(ξCHOHCH2)Val]IH-OH) | – | – | 0.7
CC[C@H](C)[C@H](NC(=O)[C@H](CC(C)C)NC[C@H](CC(C)C)NC(=O)[C@H](Cc1c[nH]cn1)NC(=O)[C@H](Cc1ccccc1)NC(=O)[C@@H]1CCCN1C(=O)[C@H](Cc1c[nH]cn1)NC(=O)[C@@H]1CCCN1)C(=O)N[C@@H](Cc1c[nH]cn1)C(=O)O (H-PHPFH-X1) | – | – | 10
CC[C@H](C)[C@H](NC(=O)CC(O)[C@H](CC(C)C)NC(=O)[C@H](Cc1c[nH]cn1)NC(=O)[C@H](Cc1ccccc1)NC(=O)[C@@H]1CCCN1C(=O)[C@H](Cc1c[nH]cn1)NC(=O)CC(C)C)C(=O)N[C@@H](Cc1ccccc1)C(N)=O (some centres not stated) (Isovaleryl-HPFH[Sta(3ξ)]IF-NH2) | – | – | 1.9
CC(C)CCC(=O)NC(=O)[C@H](C)NC(=O)CC(O)[C@@H](CC(C)C)N(C)C(=O)[C@H](NC(=O)[C@@H](NC(=O)CC(C)C)C(C)C)C(C)C (stereo in doubt; 13a(3s)) | > 5000 | 1200 | –
CC(C)CNC(=O)[C@H](C)NC(=O)[C@@H](C)CC(O)[C@@H](CC(C)C)NC(=O)[C@H](NC(=O)CC(C)C)C(C)C (stereo in doubt; 16a(4S)) | – | 3 | –
CC(C)CNC(=O)[C@H](C)NC(=O)[C@@H](C)CC(O)[C@@H](CC(C)C)NC(=O)[C@H](NC(=O)CC(C)C)C(C)C (stereo in doubt; 16b(4R)) | – | 700 | –

Other lines, results leading:

Ki [1] [nM] | Ki (Pepsin A) [nM] | IC50 (Renin) [nM] | SMILES
– | 2000 | – | CC(C)CCC(=O)NC(=O)C(C)NC(=O)CC(O)[C@H](CC(C)C)NC(=O)[C@@H](NC(=O)[C@@H](NC(=O)CC(C)C)C(C)C)C(C)C (some centres not stated)
– | 53 | – | CC(C)CNC(=O)CNC(=O)[C@@H](C)CC(O)[C@@H](CC(C)C)NC(=O)[C@H](NC(=O)CC(C)C)C(C)C (some centres not stated)
– | 0.9 | – | CC(C)CCC(=O)NC(=O)[C@H](C)NC(=O)CC(O)[C@@H](Cc1ccccc1)NC(=O)[C@H](NC(=O)CC(C)C)C(C)C (some centres not stated)
– | 27 | – | CC(C)CCC(=O)NC(=O)[C@@H](C)CC(O)[C@@H](CC(C)C)NC(=O)[C@H](NC(=O)CC(C)C)C(C)C (some centres not stated)
– | 210 | – | CC(C)CC(=O)N[C@H](C(=O)N[C@H](C(=O)N[C@H](CCC(=O)NC(C)C(=O)N[C@H](CCC(=O)O)CC(C)C)CC(C)C)C(C)C)C(C)C (some centres not stated)
– | – | 0.6 | CC[C@H](C)[C@H](NC(=O)CC(O)[C@H](CC(C)C)NC(=O)[C@H](Cc1c[nH]cn1)NC(=O)[C@H](Cc1ccccc1)NC(=O)[C@@H]1CCCN1C(=O)[C@H](Cc1c[nH]cn1)NC(=O)CC(C)C)C(=O)N[C@@H](Cc1ccccc1)C(=O)OC (some centres not stated) (Isovaleryl-HPFH[Sta(3ξ)]IF-OMe)
– | – | 1000 | CC[C@H](C)[C@H](NC(=O)[C@H](CC(C)C)NC[C@H](CC(C)C)NC(=O)C(Cc1c[nH]cn1)NC(=O)[C@H](Cc1ccccc1)NC(=O)[C@@H]1CCCN1C(=O)C(N)Cc1c[nH]cn1)C(=O)NC(Cc1c[nH]cn1)C(=O)O (stereo in doubt)
0.15 | 0.056 | – | CC(C)CC(=O)N[C@H](C(=O)N[C@H](C(=O)N[C@@H](CC(C)C)[C@@H](O)CC(=O)N[C@@H](C)C(=O)N[C@@H](CC(C)C)[C@@H](O)CC(=O)O)C(C)C)C(C)C [PEPSTATIN]

Reference: ChEMBL document CHEMBL1122949, “Pepstatin-derived inhibitors of aspartic proteinases. A close look at an apparent transition-state analogue inhibitor” (J Med Chem, 1985)
